Reference: patent US9556229B2, “Modification of peptides using a bis(thioether)arylbridge approach” (priority 2012, dated 2017)
Starred links: 1 amine or outer side, 2 acyl side, 3 side chain; linkers in the order of their positions; H or OH if unused. Non-standard residues stand in square brackets, D forms with d. Residues, ends and D or L forms follow the SMILES beside them. ξ: configuration not given here. Ala(9-anthryl) = N[C@@H](Cc1c2ccccc2cc2ccccc12)C(=O)O; Pro(4R-Bn) = O=C(O)[C@@H]1C[C@@H](Cc2ccccc2)CN1; Bip = N[C@@H](Cc1ccc(-c2ccccc2)cc1)C(=O)O; Dip = N[C@H](C(=O)O)C(c1ccccc1)c1ccccc1; 1Nal = N[C@@H](Cc1cccc2ccccc12)C(=O)O; 2Nal = N[C@@H](Cc1ccc2ccccc2c1)C(=O)O; NMePhg = CN[C@H](C(=O)O)c1ccccc1; Tic = O=C(O)[C@@H]1Cc2ccccc2CN1; Cha = N[C@@H](CC1CCCCC1)C(=O)O; Cysteamide = C(CS[*:3])N[*:1]; Chg = N[C@H](C(=O)O)C1CCCCC1; Phg = N[C@H](C(=O)O)c1ccccc1; Tle = CC(C)(C)[C@H](N)C(=O)O; ξDisc = O=C(O)C1NCc2ccccc21; NMeA = CN[C@@H](C)C(=O)O

Key:
[1] = test system: MDA-MB-231 breast cancer cell line
[2] = test system: MCF-7 breast cancer cell line; test: Cell viability, MCF-7, PrestoBlue assay; format: cell-based; settings: NA = not active
Protocol: To test our theory we decided to focus on Smac multimers. First, we synthesized a small library of Smac compounds (see, Tables 3 and 4) varying in position 4 substituents having general structure N-MeAla-Tle-4-(trans-Bn)-Pro-Xaa-NHCH2CH2—SH (SEQ ID NO:38), which were tested in vitro using MDA-MB-231 and MCF-7 breast cancer cell lines and PrestoBlue™ assay (Invitrogen).

SMILES | EC50 [1] [µM] | EC50 [2] [µM]
CN[C@@H](C)C(=O)N[C@H](C(=O)N1C[C@H](Cc2ccccc2)C[C@H]1C(=O)N[C@H](C(=O)NCCS)C1CCCCC1)C(C)(C)C [SMAC6, N^MeAla-Tle-(4-Bzl)Pro-Chg-NHCH2CH2SH] (H-[NMeA][Tle][Pro(4R-Bn)][Chg]-Cysteamide; N-terminus assumed) | 9.8 ± 3.1 | 31.2 ± 2.1
CN[C@@H](C)C(=O)N[C@H](C(=O)N1C[C@H](Cc2ccccc2)C[C@H]1C(=O)N(C)[C@H](C(=O)NCCS)c1ccccc1)C(C)(C)C [SMAC2, N^MeAla-Tle-(4-Bzl)Pro-N^MePhg-NHCH2CH2SH] (H-[NMeA][Tle][Pro(4R-Bn)][NMePhg]-Cysteamide; N-terminus assumed) | 23.8 ± 4.5 | 43.6 ± 1.6
CN[C@@H](C)C(=O)N[C@H](C(=O)N1C[C@H](Cc2ccccc2)C[C@H]1C(=O)N[C@@H](Cc1cccc2ccccc12)C(=O)NCCSCc1cc(CSCCNC(=O)[C@H](Cc2cccc3ccccc23)NC(=O)[C@@H]2C[C@@H](Cc3ccccc3)CN2C(=O)[C@@H](NC(=O)[C@H](C)NC)C(C)(C)C)cc(CSCCNC(=O)[C@H](Cc2cccc3ccccc23)NC(=O)[C@@H]2C[C@@H](Cc3ccccc3)CN2C(=O)[C@@H](NC(=O)[C@H](C)NC)C(C)(C)C)c1)C(C)(C)C [SMAC14-3X, (N^MeAla-Tle-(4-Bzl)Pro-^1Nal-NHCH2CH2S)3—(CH2)3Ph] | 7.2 ± 1.5 | 120 ± 8.4
CN[C@@H](C)C(=O)N[C@H](C(=O)N1C[C@H](Cc2ccccc2)C[C@H]1C(=O)N[C@@H](Cc1ccc(-c2ccccc2)cc1)C(=O)NCCS)C(C)(C)C [SMAC17, N^MeAla-Tle-(4-Bzl)Pro-Bip-NHCH2CH2SH] (H-[NMeA][Tle][Pro(4R-Bn)][Bip]-Cysteamide; N-terminus assumed) | 10.6 ± 0.9 | 5.7 ± 0.9
CN[C@@H](C)C(=O)N[C@H](C(=O)N1C[C@H](Cc2ccccc2)C[C@H]1C(=O)N[C@@H](Cc1ccc(-c2ccccc2)cc1)C(=O)NCCSCc1ccc(CSCCNC(=O)[C@H](Cc2ccc(-c3ccccc3)cc2)NC(=O)[C@@H]2C[C@@H](Cc3ccccc3)CN2C(=O)[C@@H](NC(=O)[C@H](C)NC)C(C)(C)C)cc1)C(C)(C)C [SMAC17-2X, (N^MeAla-Tle-(4-Bzl)Pro-Bip-NHCH2CH2S)2—(CH2)2Ph] |  | 1.7 ± 0.4
CN[C@@H](C)C(=O)N[C@H](C(=O)N1C[C@H](Cc2ccccc2)C[C@H]1C(=O)N[C@@H](Cc1cccc2ccccc12)C(=O)NCCSCc1ccc(CSCCNC(=O)[C@H](Cc2cccc3ccccc23)NC(=O)[C@@H]2C[C@@H](Cc3ccccc3)CN2C(=O)[C@@H](NC(=O)[C@H](C)NC)C(C)(C)C)cc1)C(C)(C)C [SMAC14-2X, (N^MeAla-Tle-(4-Bzl)Pro-^1Nal-NHCH2CH2S)2—(CH2)2Ph] |  | 3.5 ± 1.6
CN[C@@H](C)C(=O)N[C@H](C(=O)N1C[C@H](Cc2ccccc2)C[C@H]1C(=O)N[C@H](C(=O)NCCS)C(c1ccccc1)c1ccccc1)C(C)(C)C [SMAC16, N^MeAla-Tle-(4-Bzl)Pro-Dpa-NHCH2CH2SH] (H-[NMeA][Tle][Pro(4R-Bn)][Dip]-Cysteamide; N-terminus assumed) | 9.4 ± 0.6 | 11.3 ± 1.8
CN[C@@H](C)C(=O)N[C@H](C(=O)N1C[C@H](Cc2ccccc2)C[C@H]1C(=O)N1c2ccccc2C[C@H]1C(=O)NCCS)C(C)(C)C [SMAC5, N^MeAla-Tle-(4-Bzl)Pro-Idc-NHCH2CH2SH] | 68.3 ± 4 | 477 ± 48.4
CN[C@@H](C)C(=O)N[C@H](C(=O)N1C[C@H](Cc2ccccc2)C[C@H]1C(=O)N[C@H](CC(=O)NCCS)Cc1ccccc1)C(C)(C)C [SMAC10, N^MeAla-Tle-(4-Bzl)Pro-bhPhe-NHCH2CH2SH] | 29.7 ± 3.3 | 23.9 ± 2.1
CN[C@@H](C)C(=O)N[C@H](C(=O)N1C[C@H](Cc2ccccc2)C[C@H]1C(=O)NCc1ccc(CC(=O)NCCS)cc1)C(C)(C)C [SMAC3, N^MeAla-Tle-(4-Bzl)Pro-Amp-NHCH2CH2SH] | 14.3 ± 3.2 | 
CN[C@@H](C)C(=O)N[C@H](C(=O)N1C[C@H](Cc2ccccc2)C[C@H]1C(=O)N1Cc2ccccc2C1C(=O)NCCS)C(C)(C)C (stereo partly drawn) [SMAC4, N^MeAla-Tle-(4-Bzl)Pro-Disc-NHCH2CH2SH] (H-[NMeA][Tle][Pro(4R-Bn)][ξDisc]-Cysteamide; N-terminus assumed) | 47.1 ± 15.9 | 41.6 ± 3.7
CN[C@@H](C)C(=O)N[C@H](C(=O)N1C[C@H](Cc2ccccc2)C[C@H]1C(=O)N[C@@H](Cc1c(F)c(F)c(F)c(F)c1F)C(=O)NCCS)C(C)(C)C [SMAC9, N^MeAla-Tle-(4-Bzl)Pro-PhF-NHCH2CH2SH] | 27 ± 3.2 | 19.8 ± 3
CN[C@@H](C)C(=O)N[C@H](C(=O)N1C[C@H](Cc2ccccc2)C[C@H]1C(=O)N[C@H](C(=O)NCCS)c1ccccc1)C(C)(C)C [SMAC1, N^MeAla-Tle-(4-Bzl)Pro-Phg-NHCH2CH2SH] (H-[NMeA][Tle][Pro(4R-Bn)][Phg]-Cysteamide; N-terminus assumed) | 17.2 ± 6.4 | 31.2 ± 1.4
CN[C@@H](C)C(=O)N[C@H](C(=O)N1C[C@H](Cc2ccccc2)C[C@H]1C(=O)N[C@@H](Cc1ccccc1)C(=O)NCCS)C(C)(C)C [SMAC8, N^MeAla-Tle-(4-Bzl)Pro-Phe-NHCH2CH2SH] | 34.3 ± 6.7 | 33.3 ± 1.5
CN[C@@H](C)C(=O)N[C@H](C(=O)N1C[C@H](Cc2ccccc2)C[C@H]1C(=O)N1Cc2ccccc2C[C@H]1C(=O)NCCS)C(C)(C)C [SMAC11, N^MeAla-Tle-(4-Bzl)Pro-Tic-NHCH2CH2SH] (H-[NMeA][Tle][Pro(4R-Bn)][Tic]-Cysteamide; N-terminus assumed) | 13.3 ± 1.3 | 5.3 ± 0.6
CN[C@@H](C)C(=O)N[C@H](C(=O)N1C[C@H](Cc2ccccc2)C[C@H]1C(=O)N[C@@H](CC1CCCCC1)C(=O)NCCS)C(C)(C)C [SMAC12, N^MeAla-Tle-(4-Bzl)Pro-Cha-NHCH2CH2SH] (H-[NMeA][Tle][Pro(4R-Bn)][Cha]-Cysteamide; N-terminus assumed) | 10.1 ± 2.6 | 21.2 ± 2.4
CN[C@@H](C)C(=O)N[C@H](C(=O)N1C[C@H](Cc2ccccc2)C[C@H]1C(=O)NC(CC(=O)NCCS)c1cccc2ccccc12)C(C)(C)C (stereo partly drawn) [SMAC13, N^MeAla-Tle-(4-Bzl)Pro-bh^1NalGly-NHCH2CH2SH] | 21.7 ± 1.3 | 12.3 ± 0.5
CN[C@@H](C)C(=O)N[C@H](C(=O)N1C[C@H](Cc2ccccc2)C[C@H]1C(=O)NC[C@H]1CC[C@H](C(=O)NCCS)CC1)C(C)(C)C [SMAC7, N^MeAla-Tle-(4-Bzl)Pro-Amc-NHCH2CH2SH] | 91.8 ± 16.3 | 86.3 ± 10.5
CN[C@@H](C)C(=O)N[C@H](C(=O)N1C[C@H](Cc2ccccc2)C[C@H]1C(=O)N[C@@H](Cc1ccc2ccccc2c1)C(=O)NCCS)C(C)(C)C [SMAC15, N^MeAla-Tle-(4-Bzl)Pro-^2Nal-NHCH2CH2SH] (H-[NMeA][Tle][Pro(4R-Bn)][2Nal]-Cysteamide; N-terminus assumed) | 9.4 ± 0.5 | 10.5 ± 0.6
CN[C@@H](C)C(=O)N[C@H](C(=O)N1C[C@H](Cc2ccccc2)C[C@H]1C(=O)N[C@@H](Cc1cccc2ccccc12)C(=O)NCCS)C(C)(C)C [SMAC14, N^MeAla-Tle-(4-Bzl)Pro-^1Na1-NHCH2CH2SH] (H-[NMeA][Tle][Pro(4R-Bn)][1Nal]-Cysteamide; N-terminus assumed) | 4.5 ± 1.1 | 13.4 ± 0.5
CN[C@@H](C)C(=O)N[C@H](C(=O)N1C[C@H](Cc2ccccc2)C[C@H]1C(=O)N[C@@H](Cc1c2ccccc2cc2ccccc12)C(=O)NCCS)C(C)(C)C [SMAC18, N^MeAla-Tle-(4-Bzl)Pro-Ant-NHCH2CH2SH] (H-[NMeA][Tle][Pro(4R-Bn)][Ala(9-anthryl)]-Cysteamide) | 17.3 ± 1 | 
